Laboratory results taken from article PMC9743426, “Expanding the Chemical Space of Drug-like Passerini Compounds: Can α-Acyloxy Carboxamides Be Considered Hard Drugs?” (ACS Medicinal Chemistry Letters, 2022).

Key:
[1] = Hydrolytic (chemical) stability in Tris-HCl buffer pH 7.4; type: physicochemical; conditions: 50 mM Tris-HCl buffer pH 7.4, incubation 30 min, without microsomes
Procedure: (§1) For all 43 compounds, a first evaluation of their chemical and metabolic stabilities toward hydrolysis was performed by incubating them in buffer under physiological conditions (50 mM Tris-HCl, pH 7.4) and in mouse liver microsomes (Table 1). This model was chosen because, similar to the human liver, both of the carboxylesterase isoforms are present. […] A more interesting trend was instead possible to observe with benzoic acids.
(§2) Hydrolytic stability in MLM and HLM
(§3) The standard incubation mixture (200 µL final volume) was carried out in a 50 mM TRIS-HCl buffer (pH 7.4) containing 150 mM KCl, tween 80 as cosolvent (0.8 mg/mg protein), and the substrate (10 μM). After pre-equilibration of the mixture, an appropriate volume of MLM or HLM suspension was added to give a final protein concentration of 1.0 mg/mL. The mixture was shaken for 30 minutes at 37 °C. Control incubations were carried out without the presence or microsomes or in pure acetonitrile. Each incubation was stopped by the addition of 200 µL ice-cold acetonitrile, vortexed and centrifuged at 13000 rpm for 5 min. The supernatants were analyzed by LC-HRMS. […]

[2] = Hydrolytic stability in mouse liver microsomes (MLM); type: in vitro ADME; conditions: 30 min; for Residual substrate percentage, MLM: mouse liver microsomes 1.0 mg/mL protein, substrate 10 μM, 37 °C
Procedure: as §1, §2, §3

[3] = Hydrolytic stability in human liver microsomes (HLM); type: in vitro ADME; conditions: for Residual substrate percentage, HLM: human liver microsomes 1.0 mg/mL protein, substrate 10 μM, 37 °C; for Residual substrate percentage, HLM / Hydrolytic stability in human liver microsomes (in words): 30 min; for Hydrolytic stability toward esterases (in words): liver microsomes, species stated only for the stable ester (human liver)
Procedure: This was made in light of the fact that the overall metabolizing capability of murine hepatic enzymes, including carboxylesterases, is supposed to be higher compared to the human ones.[17]
as §2, §3

[4] = Hydrolytic stability in human plasma; type: in vitro ADME; conditions: substrate 10 μM, 30 min, 37 °C
Procedure: As a final point, for some of the compounds characterized by the best hepatic stability, we also evaluated them in human plasma (Table 2) and under acidic and alkaline conditions (see the Supporting Information), the latter to ascertain the stability of α-acyloxy carboxamides in the gastrointestinal tract. […] Once again, the ortho,ortho′-disubstitution of the aromatic ring is the one that gives the best metabolic stability. […]
Hydrolytic stability in human plasma
The standard incubation mixture (100 μL final volume) was carried out by dissolving the tested substrate compounds (10 μM) in DMSO (5% final volume) in preincubated plasma at 37 °C. The mixture was shaken for 30 min at 37 °C. Control incubations were carried out without substrate. Each incubation was stopped by addition of 200 μL of ice-cold acetonitrile, vortexed, and centrifuged at 13000 rpm for 10 min. The supernatants were analyzed by LC-HRMS. […]

[5] = tested on: P. aeruginosa ATCC 9027; test: Antibacterial activity, agar well-diffusion method; type: cell-based, Pseudomonas aeruginosa; conditions: for Inhibition zone: P. aeruginosa ATCC 9027, 1 mg/mL in DMSO, 55 μL per 6 mm well, 24 h at 37 °C, average ± SD
Text: Recently an article presented the synthesis of 1,3-phenylenebis(2-(cyclohexylamino)-2-oxoethane-1,1-diyl) dibenzoate (99) (Figure 6), obtained with a double Passerini reaction starting from 1,3-benzenedicarbaldehyde. […] According to our studies, compounds 99 is expected to suffer from metabolic instability, whereas the new analogue 100 designed by us (Figure 6), containing methyl groups at the two ortho positions in each benzoate group, should be metabolically stable. We then synthesized the two compounds and evaluated their antibacterial activities on P. aeruginosa and their hydrolytic stabilities. The in vitro antibacterial activities of 99 and 100 were evaluated against the P. aeruginosa ATCC 9027 strain. […] No inhibition halos were observed around the wells containing DMSO alone.
The in vitro antibacterial activity of the compounds was assayed against the Gram-negative P. aeruginosa
ATCC 9027 by the agar well-diffusion method. Compounds 99, 100, and gentamycin were dissolved in
DMSO (Scharlab, Barcelona, ES) and tested at the concentration of 1 mg/mL. For comparison, gentamycin
was used as a negative control of growth and DMSO as positive control of growth. The strain, obtained from
the American Type Culture Collection (ATCC, Manassas, VA, United States) and stored at −80 °C in Brain
Heart Infusion (Scharlab, Barcelona, ES) with 25% glycerol (Scharlab, Barcelona, ES), was cultured onto
Tryptic Soy Agar (Scharlab, Barcelona, ES) at 37°C for 16 h.
A bacterial suspension (ca. 1.5×10^8 Colony Forming Unit per ml) was prepared in isotonic saline solution
(NaCl 0,9%) and spread onto Muller-Hinton agar (Scharlab, Barcelona, ES) surfaces using a sterile swab.
Wells (6 mm diameter) were punched using a sterile punch cutter and filled with 55 μL of each sample. Plates
were left at room temperature for 1h to allow each sample to diffuse into the agar and then incubated at 37 °C
for 24 h. Finally, the inhibition zone diameters were measured.
The assay was carried out in triplicate and repeated twice. Results were expressed as average values ± standard

Row | Molecule | Residual substrate percentage, buffer [1] [%] | Residual substrate percentage, MLM [2] [%] | Residual substrate percentage, HLM [3] [%] | Hydrolytic stability toward esterases (in words) [3] | Hydrolytic stability toward esterases (in words) ([3]; listed as methyl 2,6-dimethylbenzoate) | Hydrolysis of the ester group in mouse liver microsomes (in words) [2] | Hydrolytic stability in human liver microsomes (in words) [3] | Residual substrate percentage, plasma [4] [%] | Antibacterial activity (in words) ([5]; P. aeruginosa ATCC 9027, 1 mg/mL) | Inhibition zone [5] [mm]
1 | COC(=O)c1ccccc1 [Compound 11, methyl benzoate, reference compound] | > 99 | < 1 | < 1 |  |  |  |  |  |  | 
2 | COC(=O)c1c(C)cccc1C [Compound 12, methyl 2,6-dimethylbenzoate, reference compound] | > 99 | 77 | > 99 | stable toward esterases | completely resistant to esterases |  |  |  |  | 
3 | Cc1cccc(C)c1C(OC(=O)c1ccccc1)C(=O)NC(C)(C)C (stereo not shown) [Compound 57] | >99 | 3 | 73 |  |  | rapidly degraded | stable | 90 |  | 
4 | CC(C)(C)NC(=O)C(OC(=O)c1ccccc1)c1ccccc1-c1ccccc1 (stereo not shown) [Compound 58] | >99 | 2 | >99 |  |  | rapidly degraded | stable | 90 |  | 
5 | CCCCCCC(OC(=O)c1cccs1)C(=O)NC(C)(C)C (stereo not shown) [Compound 64] | >99 | <1 | <1 |  |  |  | instability |  |  | 
6 | CC(C)C(OC(=O)/C=C/c1ccccc1)C(=O)NC(C)(C)C (stereo not shown) [Compound 65] | >99 | <1 | 3 |  |  | completely unstable | instability |  |  | 
7 | CC(C)C(OC(=O)C(C)(C)C)C(=O)NC(C)(C)C (stereo not shown) [Compound 73] | >99 | 30 | 52 |  |  | easily hydrolyzed | moderately more stable |  |  | 
8 | Cc1cccc(C)c1C(=O)OC(C(=O)NC(C)(C)C)c1ccccc1 (stereo not shown) [Compound 78, 2-(tert-butylamino)-2-oxo-1-phenylethyl 2,6-dimethylbenzoate] | >99 | >99 | >99 |  |  |  | excellent stability | >99 |  | 
9 | Cc1cccc(Cl)c1C(=O)OCC(=O)NC(C)(C)C [Compound 80] | 98 | 97 | >99 |  |  |  | excellent stability | >99 |  | 
10 | CC(C)(C)NC(=O)COC(=O)C(C)(C)Oc1ccc(Cl)cc1 [Compound 84] | >99 | <1 | 2 |  |  | completely unstable | instability |  |  | 
11 | Cc1c(Br)cccc1C(=O)OCC(=O)NC(C)(C)C [Compound 89] | >99 | 1 | <1 |  |  | the hydrolysis of the ester was complete | easy hydrolysis |  |  | 
12 | CC(C)(C)NC(=O)COC(=O)c1c(Cl)cccc1C(F)(F)F [Compound 96] | >99 | >99 |  |  |  |  |  |  |  | 
13 | CC(C)(C)NC(=O)COC(=O)C12CC3CC(CC(C3)C1)C2 [Compound 97] | >99 | 1 | 2 |  |  | rapidly metabolized | instability |  |  | 
14 | Cc1ccc(Br)c(C)c1C(=O)OCC(=O)NC(C)(C)C [Compound 98] | >99 | >99 | >99 |  |  | extremely stable | excellent stability | >99 |  | 
15 | Cc1cccc(C)c1C(=O)OC(C(=O)NC1CCCCC1)c1cccc(C(OC(=O)c2c(C)cccc2C)C(=O)NC2CCCCC2)c1 (stereo not shown) [Compound 100] | >99 | 95 | >99 |  |  | completely stable | completely stable | 84 | moderate antibacterial activities | 10.4 ± 1.3
16 | gentamycin |  |  |  |  |  |  |  |  |  | 22.3 ± 1.7
